Data: article PMC4695389, “Non-classical amine recognition evolved in a large clade of olfactory receptors” (eLife, 2015)
Residue numbers refer to the chain shown, from its start. “And” between values parts separate entries of the source, which are not always exact repeats. Equal entries are not always repeated. “Also recorded” adds a separate entry of the source. Where two headings read alike, the source gives them in different places.

What was measured:
[1] = tested on: goldfish; parameters: method as in Rolen, et al., 2003; Hara, 2006; details: ref Rolen, et al., 2003, Hara, 2006; cited from earlier work
[2] = tested on: zebrafish; parameters: method as in Hussain et al., 2013; details: ref Hussain et al., 2013; cited from earlier work
[3] = molecular target: zebrafish TAAR13d (Danio rerio, UniProt Q5QNQ1, I38V/T66P/V128I/V187I); test: cell-based; details: for EC50: HEK-293 cells, Cre-Seap reporter
[4] = molecular target: T1, zebrafish TAAR16f (Danio rerio, UniProt A0AC58GNM0, L317F/N20S/N8I/T68S, form not given); assay type: cell-based; details: for EC50: HEK-293 cells, Cre-Seap reporter
T1 sequence (A0AC58GNM0 1-331 N8I/N20S/T68S/L317F): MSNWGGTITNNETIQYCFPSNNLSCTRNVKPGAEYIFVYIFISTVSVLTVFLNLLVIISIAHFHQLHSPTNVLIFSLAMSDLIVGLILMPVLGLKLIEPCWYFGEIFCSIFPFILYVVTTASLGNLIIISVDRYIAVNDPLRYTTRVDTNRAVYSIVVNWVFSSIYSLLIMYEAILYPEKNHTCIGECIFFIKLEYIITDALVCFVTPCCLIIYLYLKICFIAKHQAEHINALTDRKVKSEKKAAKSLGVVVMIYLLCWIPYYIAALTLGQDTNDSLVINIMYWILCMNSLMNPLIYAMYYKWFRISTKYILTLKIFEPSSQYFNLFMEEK

[5] = tested on: TAAR16f D^5.42A mutant; test: Cre-Seap reporter gene assay, TAAR16f D^5.42A mutant; assay type: cell-based, zebrafish
[6] = molecular target: T2, zebrafish TAAR10a (Danio rerio, UniProt Q5QNP6, I156V/V182I); test: cell-based; details: HEK-293 cells, Cre-Seap reporter
T2 sequence (Q5QNP6 1-336 I156V/V182I): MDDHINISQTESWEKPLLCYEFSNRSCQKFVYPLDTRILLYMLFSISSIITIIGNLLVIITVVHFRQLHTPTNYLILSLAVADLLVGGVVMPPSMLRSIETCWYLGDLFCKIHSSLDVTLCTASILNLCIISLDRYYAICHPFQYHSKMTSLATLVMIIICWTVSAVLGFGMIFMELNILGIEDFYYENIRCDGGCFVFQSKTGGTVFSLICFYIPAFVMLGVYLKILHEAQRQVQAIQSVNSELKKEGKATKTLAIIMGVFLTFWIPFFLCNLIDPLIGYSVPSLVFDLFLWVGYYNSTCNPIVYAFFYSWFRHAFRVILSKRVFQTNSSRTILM

[7] = molecular target: zebrafish TAAR16c (Danio rerio, UniProt A0AC58H3H2, N266T); assay type: cell-based
[8] = molecular target: T3, zebrafish TAAR13c (Danio rerio, UniProt Q5QNP2); test: cell-based
T3 construct: expressed in transfected cells; host or cells: HEK-293
T3 sequence (Q5QNP2 1-341): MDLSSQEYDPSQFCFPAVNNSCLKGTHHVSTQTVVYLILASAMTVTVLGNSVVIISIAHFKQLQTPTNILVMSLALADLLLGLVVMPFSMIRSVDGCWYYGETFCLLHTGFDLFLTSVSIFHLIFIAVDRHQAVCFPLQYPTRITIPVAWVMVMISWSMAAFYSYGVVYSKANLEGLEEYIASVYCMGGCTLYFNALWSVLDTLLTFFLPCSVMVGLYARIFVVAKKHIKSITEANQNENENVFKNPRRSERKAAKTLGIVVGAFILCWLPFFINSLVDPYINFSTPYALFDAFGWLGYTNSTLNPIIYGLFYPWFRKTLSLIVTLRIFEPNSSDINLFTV

[9] = molecular target: T4, TAAR13c^D112A (Danio rerio, UniProt Q5QNP2, D112A); assay type: cell-based; details: any concentration tested, up to 1 mM
T4 construct: expressed in transfected cells; host or cells: HEK-293
T4 sequence (Q5QNP2 1-341 D112A): T3 sequence (Q5QNP2 1-341) with D112A

[10] = molecular target: T5, TAAR12i (Danio rerio, UniProt Q5QNN0, F195V/V105Y/V8A); test: Cre-Seap reporter gene assay, TAAR12i in Hana3A cells; assay type: cell-based, zebrafish
T5 sequence (Q5QNN0 1-340 V8A/V105Y/F195V): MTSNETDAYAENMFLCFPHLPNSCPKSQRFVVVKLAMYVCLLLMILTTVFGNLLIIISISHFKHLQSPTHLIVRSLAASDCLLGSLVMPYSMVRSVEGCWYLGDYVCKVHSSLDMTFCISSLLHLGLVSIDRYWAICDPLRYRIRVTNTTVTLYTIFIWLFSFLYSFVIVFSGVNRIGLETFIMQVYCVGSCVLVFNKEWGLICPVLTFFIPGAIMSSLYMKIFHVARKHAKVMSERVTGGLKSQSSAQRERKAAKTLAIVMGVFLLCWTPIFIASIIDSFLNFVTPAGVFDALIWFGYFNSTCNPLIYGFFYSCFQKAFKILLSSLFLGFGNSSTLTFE

[11] = tested on: TAAR16c D^5.42A mutant; test: Cre-Seap reporter gene assay, TAAR16c D^5.42A mutant; assay type: cell-based, zebrafish
[12] = molecular target: zebrafish TAAR13a (Danio rerio, UniProt Q5QNP9, F294L/F316L/I267M/N226K/T142R); test: cell-based; details: HEK-293 cells, Cre-Seap reporter
[13] = molecular target: T6, TAAR10b (Danio rerio, UniProt Q5QNN3, A166T/H113R/V182I/V259M); test: Cre-Seap reporter gene assay, TAAR10b in Hana3A cells; assay type: cell-based, zebrafish
T6 sequence (Q5QNN3 1-336 H113R/A166T/V182I/V259M): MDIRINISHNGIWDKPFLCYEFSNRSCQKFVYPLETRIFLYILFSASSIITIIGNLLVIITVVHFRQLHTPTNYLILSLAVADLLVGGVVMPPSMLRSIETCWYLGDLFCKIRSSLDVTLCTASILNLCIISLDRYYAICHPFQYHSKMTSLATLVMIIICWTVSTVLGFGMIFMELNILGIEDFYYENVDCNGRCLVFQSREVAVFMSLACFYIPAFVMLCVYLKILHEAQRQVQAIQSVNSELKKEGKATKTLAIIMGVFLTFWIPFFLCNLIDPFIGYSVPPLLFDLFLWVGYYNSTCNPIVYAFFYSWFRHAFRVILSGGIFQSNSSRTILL

[14] = molecular target: T7, zebrafish TAAR14d (Danio rerio, UniProt U3JB35); test: cell-based; details: HEK-293 cells, Cre-Seap reporter
T7 sequence (U3JB35 1-328): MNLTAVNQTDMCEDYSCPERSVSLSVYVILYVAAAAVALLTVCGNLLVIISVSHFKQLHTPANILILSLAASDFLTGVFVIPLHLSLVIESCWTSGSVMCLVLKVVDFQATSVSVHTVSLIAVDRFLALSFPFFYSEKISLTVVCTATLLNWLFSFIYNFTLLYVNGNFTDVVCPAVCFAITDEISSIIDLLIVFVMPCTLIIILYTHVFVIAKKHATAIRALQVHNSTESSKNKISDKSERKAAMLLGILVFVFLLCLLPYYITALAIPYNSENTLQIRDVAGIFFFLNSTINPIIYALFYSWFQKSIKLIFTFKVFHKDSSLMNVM

[15] = molecular target: T8, zebrafish TAAR13e (Danio rerio, UniProt Q5QNP8, I215V/V266I); test: cell-based; details: HEK-293 cells, Cre-Seap reporter
T8 sequence (Q5QNP8 1-341 I215V/V266I): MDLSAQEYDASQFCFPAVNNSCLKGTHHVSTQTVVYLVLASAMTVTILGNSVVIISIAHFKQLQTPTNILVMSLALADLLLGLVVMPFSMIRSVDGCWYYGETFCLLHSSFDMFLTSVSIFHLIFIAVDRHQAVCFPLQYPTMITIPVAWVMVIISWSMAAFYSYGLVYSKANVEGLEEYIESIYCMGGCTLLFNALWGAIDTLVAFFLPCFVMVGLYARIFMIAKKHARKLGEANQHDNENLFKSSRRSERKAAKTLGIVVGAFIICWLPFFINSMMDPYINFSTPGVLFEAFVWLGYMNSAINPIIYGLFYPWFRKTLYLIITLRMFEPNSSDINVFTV

Chain of zebrafish TAAR16c (A0AC58H3H2 entry or part of it N266T): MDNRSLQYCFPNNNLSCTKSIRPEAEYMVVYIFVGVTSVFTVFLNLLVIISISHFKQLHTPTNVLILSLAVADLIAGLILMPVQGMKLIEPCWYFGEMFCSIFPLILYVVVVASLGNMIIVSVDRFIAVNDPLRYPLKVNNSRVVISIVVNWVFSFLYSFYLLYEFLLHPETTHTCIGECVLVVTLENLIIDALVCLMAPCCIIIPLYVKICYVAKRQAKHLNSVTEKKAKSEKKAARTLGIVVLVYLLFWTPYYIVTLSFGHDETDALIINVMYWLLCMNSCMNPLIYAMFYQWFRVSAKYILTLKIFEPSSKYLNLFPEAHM
Chain of zebrafish TAAR13d (Q5QNQ1 entry or part of it I38V/T66P/V128I/V187I): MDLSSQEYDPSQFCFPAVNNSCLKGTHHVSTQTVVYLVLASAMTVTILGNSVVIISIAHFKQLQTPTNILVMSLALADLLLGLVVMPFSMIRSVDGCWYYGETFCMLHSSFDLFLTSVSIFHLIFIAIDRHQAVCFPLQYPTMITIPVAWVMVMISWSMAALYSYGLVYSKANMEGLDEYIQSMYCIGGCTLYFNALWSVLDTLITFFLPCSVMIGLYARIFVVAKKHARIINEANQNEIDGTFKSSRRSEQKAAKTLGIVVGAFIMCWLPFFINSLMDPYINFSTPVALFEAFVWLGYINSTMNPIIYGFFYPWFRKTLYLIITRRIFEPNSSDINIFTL
Chain of zebrafish TAAR13a (Q5QNP9 1-341 T142R/N226K/I267M/F294L/F316L): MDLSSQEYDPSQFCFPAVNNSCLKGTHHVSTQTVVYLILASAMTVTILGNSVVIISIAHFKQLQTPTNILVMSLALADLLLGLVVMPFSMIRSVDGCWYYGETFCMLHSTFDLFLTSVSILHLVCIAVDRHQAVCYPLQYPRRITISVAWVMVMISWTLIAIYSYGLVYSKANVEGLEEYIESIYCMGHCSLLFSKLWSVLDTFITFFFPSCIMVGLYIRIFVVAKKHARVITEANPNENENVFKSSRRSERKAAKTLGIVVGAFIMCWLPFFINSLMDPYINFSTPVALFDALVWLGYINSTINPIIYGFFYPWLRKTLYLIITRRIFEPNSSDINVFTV

NCCCCN [putrescine]
feeding-associated pecking behavior [1]: increase feeding-associated pecking behavior | avoidance behavior [2]: evoke avoidance behavior | EC50 [3]: ~1 µM and 1 µM

CC(C)CCN [isoamylamine]
recognition by TAAR16f at 1 mM ([4]; 1 mM): recognizes | EC50 [4]: ~200 µM | EC50 ([4]; listed as Isoamylamine): 200 µM | response of TAAR16f with charge-neutralizing mutation of Asp^5.42 [5]: completely eliminated responses

CC(C)CCO [isoamyl alcohol]
detection by TAAR16f [4]: failed to detect | recognition by TAAR16f at 1 mM [4]: not

NCCc1c[nH]c2ccc(O)cc12 [serotonin]
EC50 ([6]; read-out: EC50, TAAR10a): ~0.5 µM and 0.5 µM

COc1ccc2[nH]cc(CCN)c2c1 [5-methoxytryptamine]
EC50 ([6]; EC50, TAAR10a): ~20 µM

NCCCN [diaminopropane]
reduced sensitivity of TAAR13d relative to putrescine ([3]; compared with putrescine): ~ 3,000 fold

C1CCOC1 [tetrahydrofuran]
agonism of TAAR16c [7]: did not activate

NCCCCCN [cadaverine]
EC50 ([8]; HEK-293 cells, Cre-Seap reporter, read-out: EC50 (half maximal response), TAAR13c): ~10 µM and 10 µM | feeding-associated pecking behavior [1]: increase feeding-associated pecking behavior | avoidance behavior [2]: evoke avoidance behavior | activation of TAAR13c D112A mutant [9]: abrogates cadaverine responsiveness; also recorded: failed to activate

COc1cc(CCN)ccc1O [3-methoxytyramine]
activation of wild type TAAR13c ([8]; any concentration tested): failed to activate | EC50 [10]: 100 µM

C1CCNC1 [pyrrolidine]
agonism of TAAR16c ([7]; any concentration tested): partial agonists

CN1CCCCC1 [N-methylpiperidine]
response of TAAR16c with charge-neutralizing mutation of Asp^5.42 [11]: completely eliminated responses

NCCc1c[nH]cn1 [Histamine]
EC50 [3]: ~7 µM | EC50 [12]: ~20 µM and 20 µM

NCCc1c[nH]c2ccccc12 [tryptamine]
EC50 ([6]; read-out: EC50, TAAR10a): ~70 µM | EC50 [13]: 50 µM

NCCCCN=C(N)N [Agmatine]
feeding-associated pecking behavior [1]: increase feeding-associated pecking behavior | EC50 [14]: ~100 µM and 100 µM | EC50 [15]: ~1 µM and 1 µM

C1CCNCC1 [piperidine]
agonism of TAAR16c [7]: partial agonists
